Results reported in patent US7691844B2, “Nonpeptide substituted spirobenzoazepines as vasopressin antagonists” (Ortho-McNeil Pharmaceutical, Inc., priority 2000, dated 2010).

Experiments:
[1] = target: human V2 receptor (Homo sapiens, UniProt P30518); experiment: In-vitro receptor binding assay (3H-arginine-8-vasopressin), V2; settings: for Receptor Binding V2 (% Inh. @ concentration in μM) / inhibition at 0.1 µM: @ 0.1 μM; for inhibition at 0.1 µM: read-out: Receptor Binding V2 (% Inh. @ concentration in μM)
Summary of the method: (§1)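 Radioligand is 3H-arginine-8-vasopressin, incubated with receptor for one hour at room temperature, then filtered on GF/C plates and counted by scintillation. Non-specific binding was defined with 1.25 μM vasopressin, and results are given as % inhibition.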

[2] = target: T1, V1b (Homo sapiens, UniProt P47901); experiment: In-vitro receptor binding assay (3H-arginine-8-vasopressin), V1b
T1 sequence (P47901 1-424): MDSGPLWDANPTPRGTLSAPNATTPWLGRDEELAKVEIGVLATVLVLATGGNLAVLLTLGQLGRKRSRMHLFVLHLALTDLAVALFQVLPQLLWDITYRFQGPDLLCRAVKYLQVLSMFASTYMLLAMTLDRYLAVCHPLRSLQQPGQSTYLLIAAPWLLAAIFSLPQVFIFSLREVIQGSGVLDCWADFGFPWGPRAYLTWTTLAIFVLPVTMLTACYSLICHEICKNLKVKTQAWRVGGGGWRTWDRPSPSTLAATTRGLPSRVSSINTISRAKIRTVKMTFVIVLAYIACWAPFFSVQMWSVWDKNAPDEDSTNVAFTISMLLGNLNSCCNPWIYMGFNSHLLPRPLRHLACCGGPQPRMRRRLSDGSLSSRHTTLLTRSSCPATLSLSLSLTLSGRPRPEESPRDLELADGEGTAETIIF
Experimental: (A) In-Vitro Binding Assay […] The reaction plates are allowed to sit at room temperature for one hour. The samples are filtered through Unifilter GF/C plates (presoaked in 0.3 polyethyleneimine). The plates are washed 5 times with cold physiological saline containing 0.05% Tween 20. After drying, the bottom of the filter plates are sealed and 0.025 ml of Microscint-20 is added to each filter. The top of the plate is sealed, and the plate is counted. Non-specific binding is determined by the addition of 1.25 μM […]-vasopressin in those wells. % Inh. is calculated as follows: […]

[3] = target: T2, V1a (Homo sapiens, UniProt P37288); experiment: In-vitro receptor binding assay (3H-arginine-8-vasopressin), V1a
Summary of the method: as §1

[4] = target: T2, V1a; experiment: V1a vasopressin receptor functional activity (inhibition of vasopressin-induced intracellular calcium, FLIPR, V1a-HEK cells); format: cell-based; design: expressed in transfected cells; settings: HEK-293 cells transfected with human V1a receptor; vasopressin challenge
Experimental: [formula] (B) V1a Vasopressin Receptor Functional Activity
The V1a receptor is a G-protein coupled receptor, which upon activation triggers an increase in intracellular calcium mobilization. To evaluate compounds for their functional V1a receptor activity, HEK-293 cells were transfected with the human V1a receptor (V1a-HEK cells). HEK-293 cells were grown in DMEM (Dulbecco's modified Eagle Media) supplemented with 10% FBS and glutamine. HEK-cells were passed biweekly by trypsinization and seeded into 96 well plates at 33,000 cells per well. HEK-293 cells were transfected with human V1a receptor DNA using DMRIE-C reagent from Life Technologies. Stable lines were generated by selecting cells grown in culture media containing geneticin. After growing in Packard Clear-View black 96 well plates for 4-6 days, V1a-HEK cells were loaded with the calcium-sensitive fluorescence dye, FLUO-3 AM. Changes in cell fluorescence were quantitated using FLIPR (Fluorometric Imaging Plate Reader; Molecular Devices, Sunnyvale, Calif.). Test compounds were first added to the cells and the resulting changes in fluorescence measured to detect receptor agonistic activity. Five minutes later the cells were challenged with vasopressin to test compounds for their antagonistic activity. Receptor antagonists inhibit the ability of vasopressin to stimulate increases in intracellular fluorescence. IC50's were calculated.

[5] = @ 10 μM, read-out: Receptor Binding V1b (% Inh. @ concentration in μM)

T2 sequence (P37288 whole entry): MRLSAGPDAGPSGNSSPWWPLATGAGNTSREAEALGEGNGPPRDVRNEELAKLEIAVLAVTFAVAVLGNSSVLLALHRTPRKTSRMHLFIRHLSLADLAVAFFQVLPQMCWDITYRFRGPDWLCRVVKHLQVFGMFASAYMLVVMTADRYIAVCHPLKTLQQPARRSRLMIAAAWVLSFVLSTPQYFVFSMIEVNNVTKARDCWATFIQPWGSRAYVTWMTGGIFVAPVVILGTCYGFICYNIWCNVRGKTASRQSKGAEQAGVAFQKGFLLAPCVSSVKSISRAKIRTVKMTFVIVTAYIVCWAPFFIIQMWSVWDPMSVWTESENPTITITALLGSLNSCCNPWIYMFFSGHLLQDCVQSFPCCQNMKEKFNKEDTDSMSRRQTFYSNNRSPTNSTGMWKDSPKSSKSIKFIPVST

Compound | IC50 [3] [µM] | IC50 [4] [µM] | IC50 [1] [µM] | also measured
CN(C)CCNC(=O)C1=CC2(CC1)CCN(C(=O)c1ccc(NC(=O)c3ccccc3F)cc1)c1ccccc1C2 (stereo not shown) [Compound 16, 4-(2-Fluorobenzoyl-4-aminobenzoyl)-3′-[2-(N,N-dimethylaminoethylcarbonyl)]-4-aza-[6,4]-spiro-[5,6]-benzoundec-2′-ene] | 0.008 | 0.126 |  | inhibition at 0.1 µM [1]: 17%; inhibition at 10 µM [2, 5]: 8%
CN(C)CCNC(=O)C1=C[C@]2(CC1)CCN(C(=O)c1ccc(NC(=O)c3ccccc3-c3ccccc3)cc1)c1ccccc1C2 [Compound 20, (S)-4-(2-phenylbenzoyl-4-aminobenzoyl)-3′-(2-(N,N-dimethylaminoethylaminocarbonyl))-4-aza-[6,4]-spiro-[5,6]-benzoundec-2′-ene] | 0.003 | 0.002 | 0.016 | Receptor Binding V1b (% Inh. @ concentration in μM) ([2]; @ 10 μM): 13% @ 10
CN(C)CCNC(=O)C1=CC2(CC1)CCN(C(=O)c1ccc(NC(=O)c3ccccc3-c3ccccc3)cc1)c1ccccc1C2 (single isomer, unassigned) [Compound 21] | 0.181 | 0.008 | 0.44 | inhibition at 10 µM [2, 5]: 7%
(R)-4-(2-fluorophenylbenzoyl-4-aminobenzoyl)-3′-(2-(N,N-dimethylaminoethylaminocarbonyl))-4-aza-[6,4]-spiro-[5,6]-benzoundec-2′-ene [Compound 23] |  |  |  | Receptor Binding V2 (% Inh. @ concentration in μM) [1]: 1% @ 0.1; IC50 [2]: 13.7 µM; Receptor Binding V1a (% Inh. @ concentration in μM) ([3]; @ 0.1 μM): 15% @ 0.1
O=C(O)C1=CC2(CC1)CCN(C(=O)c1ccc(NC(=O)c3ccccc3-c3ccccc3)cc1)c1ccccc1C2 (stereo not shown) [Compound 4, 4-(2-Phenylbenzoyl-4-aminobenzoyl)-3′ (carboxyl)-4-aza-[6,4]-spiro-[5,6]-benzoundec-2′-ene] | 0.037 | 0.02 | 0.014 | 
O=C(Nc1ccc(C(=O)N2CCC3(C=C(CO)CC3)Cc3ccccc32)cc1)c1ccccc1-c1ccccc1 (stereo not shown) [Compound 1, 4-(2-Phenylbenzoyl-4-aminobenzoyl)-3′-(hydroxymethyl)-4-aza-[6,4]-spiro-[5,6]-benzoundec-2′-ene] | 0.009 | < 0.01 | 0.018 | 
O=C(NCCN1CCCCC1)C1=CC2(CC1)CCN(C(=O)c1ccc(NC(=O)c3ccccc3F)cc1)c1ccccc1C2 (stereo not shown) [Compound 18] | 0.007 | 0.95 |  | inhibition at 0.1 µM [1]: 23%
CCNc1ccc(C(=O)N2CCC3(CCCCC3)Cc3ccccc32)cc1 [Compound 26] | 0.16 | 0.105 | 10 | 
CCCCOc1ccc(C(=O)N2CCC3(C=CCCC3)Cc3ccccc32)cc1 (stereo not shown) [Compound 53] | 0.06 | 0.104 | 8 | 
O=C(NCCO)C1=CC2(CC1)CCN(C(=O)c1ccc(NC(=O)c3ccccc3-c3ccccc3)cc1)c1ccccc1C2 (stereo not shown) [Compound 6] | 0.006 | 0.005 | 0.011 | 
O=C(Nc1ccc(C(=O)N2CCC3(C=CCCC3)Cc3ccccc32)c(Cl)c1)c1ccccc1F (stereo not shown) [Compound 110] | 0.9 | 2.57 | 1 | 

More lines, main results first:

IC50 [3] [µM] | IC50 [4] [µM] | IC50 [1] [µM] | Compound | also measured
0.003 |  |  | (S)-4-(2-fluorophenylbenzoyl-4-aminobenzoyl)-3′-(2-(N,N-dimethylaminoethylaminocarbonyl))-4-aza-[6,4]-spiro-[5,6]-benzoundec-2′-ene [Compound 22] | Receptor Binding V2 (% Inh. @ concentration in μM) [1]: 15% @ 0.1; Receptor Binding V1b (% Inh. @ concentration in μM) ([2]; @ 10 μM): 17% @ 10
0.005 | 0.004 | 0.011 | CN(C)CCNC(=O)C1=CC2(CC1)CCN(C(=O)c1ccc(NC(=O)c3ccccc3-c3ccccc3)cc1)c1ccccc1C2 (stereo not shown) [Compound 9, 4-(2-Phenylbenzoyl-4-aminobenzoyl)-3′-[2-(N,N-dimethylaminoethylcarbonyl)]-4-aza-[6,4]-spiro-[5,6]-benzoundec-2′-ene] | inhibition at 10 µM [2, 5]: 12%
0.008 | 0.155 |  | O=C(NCCN1CCCC1)C1=CC2(CC1)CCN(C(=O)c1ccc(NC(=O)c3ccccc3F)cc1)c1ccccc1C2 (stereo not shown) [Compound 19] | Receptor Binding V1b (% Inh. @ concentration in μM) ([2]; @ 0.1 μM): 22% @ 0.1
0.014 | 0.227 |  | O=C(NCCN1CCOCC1)C1=CC2(CC1)CCN(C(=O)c1ccc(NC(=O)c3ccccc3F)cc1)c1ccccc1C2 (stereo not shown) [Compound 17] | inhibition at 0.1 µM [1]: 18%
0.02 | < 0.01 | 0.022 | CC(=O)N(C)CC1=CC2(CC1)CCN(C(=O)c1ccc(NC(=O)c3ccccc3-c3ccccc3)cc1)c1ccccc1C2 (stereo not shown) [Compound 5, 4-(2-Phenylbenzoyl-4-aminobenzoyl)-3′-(N-methyl-N-acetylaminomethyl)-4-aza-[6,4]-spiro-[5,6]-benzoundec-2′-ene] | 
0.004 | 0.099 |  | O=C(NCCO)C1=CC2(CC1)CCN(C(=O)c1ccc(NC(=O)c3ccccc3F)cc1)c1ccccc1C2 (stereo not shown) [Compound 8] | inhibition at 0.1 µM ([2]; @ 0.1 μM, read-out: Receptor Binding V1b (% Inh. @ concentration in μM)): 41%
